Common to all, as to type: biochemical
One assay concerns the target T1, MMP 9 (Homo sapiens, UniProt P14780).
T1 construct: from tissue; host or cells: human neutrophils
The experiment in a line: In vitro gelatinase assay (human neutrophil gelatinase B). The following applies: read-out: MMP 9 IC 50. The method, then:
The assay is based on the cleavage of the thiopeptide substrate ((Ac-Pro-Leu-Gly(2 mercapto-4 methyl-pentanoyl)-Leu-Gly-OEt), Bachem Bioscience) by the enzyme, gelatinase, releasing the substrate product which reacts calorimetrically with DTNB ((5,5′-dithio-bis(2-nitro-benzoic acid)). The enzyme activity is measured by the rate of the color increase.
The thiopeptide substrate is made up fresh as a 20 mM stock in 100% DMSO and the DTNB is dissolved in 100% DMSO as a 100 mM stock and stored in dark at room temperature. Both the substrate and DTNB are diluted together to 1 mM with substrate buffer (50 mM HEPES pH 7.5, 5 mM CaCl2) before use. The stock of human neutrophil gelatinase B is diluted with assay buffer (50 mnM HEPES pH 7.5, 5 mM CaCl2, 0.02% Brij) to a final concentration of 0.15 mnM.
The increase in OD405 is plotted and the slope of the line is calculated which represents the reaction rate.

The target of another assay is T2, TACE (Homo sapiens, UniProt P78536).
T2 construct: purchased Immunex
The experiment in a line: Procedure for measuring TACE inhibition. On the set-up: TACE % inhibition: dose or concentration left out as unconfirmed. The settings on record: for IC50: read-out: TACE IC 50. The method, then: Using 96-well black microtiter plates, each well receives a solution composed of 10 μL TACE (Inmunex, final concentration 1 μg/mL), 70 μL Tris buffer, pH 7.4 containing 10% glycerol (final concentration 10 mM), and 10 μL of test compound solution in DMSO ([…], DMSO concentration <1%) and incubated for 10 minutes at room temperature. The reaction is initiated by addition of a fluorescent peptidyl substrate (final concentration 100 μM to each well and then shaking on a shaker for 5 sec.
The reaction is read (excitation 340 nm, emission 420 nm) for 10 min. and the increase in fluorescence over time is plotted as a linear line. The slope of the line is calculated and represents the reaction rate.
The mean (xtsem) of the control rate is calculated and compared for statistical significance (p<0.05) with drug-treated rates using Dunnett's multiple comparison test.

The next assay has as its target MMP 13 (Homo sapiens, UniProt P45452). The experiment in a line: MMP 13 inhibition (manual). The settings on record: read-out: MMP 13 IC 50.
For the next assay, the target named is T3, MMP 1 (Homo sapiens, UniProt P03956).
T3 construct: human recombinant fibroblast collagenase (truncated, mw=18,828, WAR, Radnor)
T3 sequence (P03956 100-269 limits assumed): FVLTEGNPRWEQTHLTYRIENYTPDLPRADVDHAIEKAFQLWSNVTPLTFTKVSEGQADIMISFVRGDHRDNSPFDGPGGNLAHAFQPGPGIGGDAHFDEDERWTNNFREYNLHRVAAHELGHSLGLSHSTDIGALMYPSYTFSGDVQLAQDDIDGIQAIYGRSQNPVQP
The experiment in a line: In vitro collagenase assay (human recombinant fibroblast collagenase). The following applies: read-out: MMP 1 IC 50. The method, then:
The assay is based on the cleavage of a peptide substrate ((Dnp-Pro-Cha-Gly-Cys(iNe)-His-Ala-Lys(NMa)-NH2), Peptide International, Inc.) by collag,enase releasing the fluorescent NMa group which is quantitated on the fluorometer. Dnp quenches the NiIa fluorescence in the intact substrate. […] Substrate is dissolved in methanol and stored frozen in 1 mM aliquots. Collagenase is stored frozen in buffer in 25 µM aliquots. For the assay, substrate is dissolved in HCBC buffer to a final concentration of 10 μM and collagenase to a final concentration of 5 nM. Compounds are dissolved in methanol, DMSO, or HCBC. The methanol and DMSO are diluted in HCBC to <1.0%. Compounds are added to the 96 well plate containing enzyme and the reaction is started by the addition of substrate.
The slope of the line is calculated and represents the reaction rate.
The mean (x±sem) of the control rate is calculated and compared for statistical significance (p<0.05) with drug-treated rates using Dunnett's multiple comparison test.

T2 sequence (P78536 215-824): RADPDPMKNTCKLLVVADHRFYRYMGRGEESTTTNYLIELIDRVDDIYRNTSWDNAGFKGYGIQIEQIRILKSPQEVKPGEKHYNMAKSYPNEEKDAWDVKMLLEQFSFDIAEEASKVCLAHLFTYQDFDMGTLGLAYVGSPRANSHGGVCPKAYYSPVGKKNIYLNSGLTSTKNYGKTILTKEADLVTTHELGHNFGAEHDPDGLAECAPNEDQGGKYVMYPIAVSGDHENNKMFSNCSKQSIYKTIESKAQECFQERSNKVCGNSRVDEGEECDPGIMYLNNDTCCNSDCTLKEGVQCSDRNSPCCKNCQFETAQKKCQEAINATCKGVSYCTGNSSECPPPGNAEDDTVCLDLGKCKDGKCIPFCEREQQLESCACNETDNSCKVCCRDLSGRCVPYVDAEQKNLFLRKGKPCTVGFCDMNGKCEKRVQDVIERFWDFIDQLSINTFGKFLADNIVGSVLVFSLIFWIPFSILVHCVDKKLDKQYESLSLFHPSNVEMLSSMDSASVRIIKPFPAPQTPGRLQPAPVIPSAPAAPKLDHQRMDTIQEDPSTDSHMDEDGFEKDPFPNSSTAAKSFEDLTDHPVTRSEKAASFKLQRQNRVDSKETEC
T1 sequence (P14780 94-707): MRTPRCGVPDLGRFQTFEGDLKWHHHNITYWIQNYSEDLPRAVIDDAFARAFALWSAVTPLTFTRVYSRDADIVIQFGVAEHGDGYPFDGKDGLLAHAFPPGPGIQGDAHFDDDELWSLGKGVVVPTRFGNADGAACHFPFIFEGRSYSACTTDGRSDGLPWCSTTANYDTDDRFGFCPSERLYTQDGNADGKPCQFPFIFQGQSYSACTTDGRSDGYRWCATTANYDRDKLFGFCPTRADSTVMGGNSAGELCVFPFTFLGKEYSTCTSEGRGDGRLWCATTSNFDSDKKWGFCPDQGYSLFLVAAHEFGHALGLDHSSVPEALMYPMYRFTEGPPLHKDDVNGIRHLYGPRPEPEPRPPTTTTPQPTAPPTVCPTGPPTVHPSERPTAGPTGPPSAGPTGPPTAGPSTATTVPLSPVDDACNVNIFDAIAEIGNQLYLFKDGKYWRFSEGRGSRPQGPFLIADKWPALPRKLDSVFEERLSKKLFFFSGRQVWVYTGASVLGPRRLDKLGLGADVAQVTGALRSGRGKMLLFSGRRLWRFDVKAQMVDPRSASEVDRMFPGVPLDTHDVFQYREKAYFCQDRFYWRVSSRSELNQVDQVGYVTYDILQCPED

With “1-(Bromo-benzyl)-4-(4-methoxy-benzenesulfonyl)-piperidine-4-carboxylic acid hydroxyamide [Example 90]”, the IC50 on MMP 9 was 0.0103 µM; at TACE, 0.0719 µM.
Turning to “2-(4-Fluoro-benzenesulfonyl)-2-but-2-ynyl-hexynoic acid hydroxyamide [Example 78]”, the IC50 at MMP 9 was 0.56 µM; at MMP 13 it was 0.034 µM. Further, the “TACE % inhibition at 1 micromolar” value on TACE is given as 24.58%.
With “5-Methyl-2-(3-methyl-but-2-enyl)-2-(toluene-4-sulfonyl)-hexenoic acid hydroxyamide [Example 42]”, the values for the IC50 on MMP 9, on MMP 13 and at TACE were 0.0509 µM, 0.0062 µM and 0.0365 µM, respectively.
For `COc1ccc(SC(C)(Cc2ccccc2)C(=O)NO)cc1` (centres unmarked) [Example 1, N-Hydroxy-2-(4-methoxy-phenylsulfanyl)-2-methyl-3-phenyl-propionamnide], the IC50 on MMP 9 turned out to be 0.56 µM; at MMP 13, 0.193 µM. Besides, the “TACE % inhibition at 1 micromolar” value on TACE is 31.62%.
For the compound `COc1ccc([S+]([O-])C(C)(Cc2ccccc2)C(=O)NO)cc1` (centres unmarked) [Example 5, N-Hydroxy-2-(4-methoxy-benzenesulfmyl)-2-methyl-3-phenyl-propionamide], the “TACE % inhibition at 1 micromolar” value on TACE is given as 25%.
On the same count and under the same terms, the figure for `COc1ccc(S(=O)(=O)C(Cc2ccccc2)C(=O)NO)cc1` (centres unmarked) [Example 9, N-Hydroxy-2-(4-methoxy-benzenesulfonyl)-3-phenyl-propionarmide] is 20.30%.
Still for that read-out and setting: the figure for `COc1ccc(S(=O)(=O)C(C)(Cc2ccc(OCCN(C(C)C)C(C)C)cc2)C(=O)NO)cc1` (centres unmarked) [Example 20, N-Hydroxy-2-(4-methoxy-benzenesulfonyl)-2-methy-3-[4-(2-N,N-diisopropylamino-ethoxy)-phenyl]-propionamide] is 31%.
On the same count and under the same terms, the figure for `COc1ccc(S(=O)(=O)C(C)(Cc2ccc(OCCCN3CCN(c4cccc(Cl)c4)CC3)cc2)C(=O)NO)cc1` (centres unmarked) [Example 23, 3-(4-{3-[4-(3-Chloro-phenyl)-piperain-1-yl]-propoxy}-phenyl)-N-hydroxy-2-(4-methoxy-benzenesulfonyl)-2-methyl-propionamide] is 40.6%; for `COc1ccc(S(=O)(=O)C(C)(Cc2cccc(OCCN3CCOCC3)c2)C(=O)NO)cc1` (centres unmarked) [Example 30, N-Hydroxy-2-(4-methoxy-benzenesulfonyl)-2-methyl-3-[3-(2-morpholin-1-yl-ethoxy)-phenyl]-propionamide] it is 25.2%.
Regarding `COc1ccc(S(=O)(=O)C(CCCCOc2ccccc2)(Cc2cccnc2)C(=O)NO)cc1` (centres unmarked) [Example 68, 2-(4-Methoxy-benzenesulfonyl)-6-phenoxy-2-pyridin-3-yhnethyl-hexanoic acid hydroxyamide], the results for the IC50 at MMP 9, on MMP 13 and on TACE were 0.029 µM, 0.027 µM and 0.522 µM, respectively.
In the case of `CCCCCC#CCC(CC#CCCCCC)(C(=O)NO)S(=O)(=O)c1ccc(OC)cc1` [Example 71, 2-(4-methoxy-benzenesulfonyl)-2-oct-2-ynyl-decffynoic acid hydroxyamide], the “TACE % inhibition at 1 micromolar” value at TACE turned out to be 42.21%.
Turning to `CC#CCC(CC#CC)(C(=O)NO)S(=O)(=O)c1ccc(OC)cc1` [Example 72, 2-(4-Methoxy-benzenesulfonyl)-2-but-2-ynyl-hextynoic acid hydroxyamide], the “TACE % inhibition at 1 micromolar” value on TACE was determined as 51.64%.
The same measure, in the same setting: the figure for `C#CCC(CC#C)(C(=O)NO)S(=O)(=O)c1ccc(OC)cc1` [Example 73, 2-(4-Methoxy-benzenesulfonyl)-2-prop-2-ynyl-pentynoic acid hydroxyamde] is 20.17%.
For the compound `COc1ccc(S(=O)(=O)C(CC=C(C)C)(CC=C(C)C)C(=O)NO)cc1` [Example 79, 2-(4-Methoxy-benzenesulfonyl)-5-methyl-2-(3-methyl-but-2-enyl)-hexenoic acid hydroxyamide], the IC50 on MMP 1 came out at 0.025 µM; at MMP 9, 0.00054 µM; at TACE, 0.805 µM.
For the compound `COc1ccc(S(=O)(=O)C2(C(=O)NO)CCN(CCCOc3ccccc3)CC2)cc1` [Example 105, 4-(4-Methoxy-benzenesulfony)-1-(3-phenoxy-propyl)-pipendine-4-carboxyllc acid hydroxyamide], the “TACE % inhibition at 1 micromolar” value at TACE is recorded as 50.2%.
With `CCCCCCC(Sc1cccc(C(=O)NO)c1)C(=O)NO` (centres unmarked) [Example 184], the TACE % inhibition on TACE amounted to 24.8%.
On to `CCCCCCC(C(=O)NO)[S+]([O-])c1cccc(C(=O)NO)c1` (centres unmarked) [Example 188, 3-(1-Hydroxycarbamoyl-heptylsulfmyl)-benzoicacid hydroxyamide], for which the “TACE % inhibition at 1 µM” value at TACE was determined as 16.2%.
For `CCCCOc1ccc(S(=O)(=O)C2(C(=O)NO)CCN(Cc3ccc(OCCN4CCCCC4)cc3)CC2)cc1` [Example 242, 4-(4-Butoxy-benzenesulfonyl)-1-[4-(2-piperidin-1-yl-ethoxy)-benzyl]-piperidine-4-carboxylic acid hydroxyamide], the IC50 at MMP 1 is 1.95 µM; on MMP 9, 0.002 µM; at TACE, 0.581 µM.
Consider `CCCCOc1ccc(S(=O)(=O)C2(C(=O)NO)CCN(Cc3cccc(OCCN4CCOCC4)c3)CC2)cc1` [Example 243, 4(4-Butoxy-benzenesulfonyl)-1-[3-(2-morpholinyl-1-ylthoxy)-benzyl]-piperidine-4-carboxylic acid hydroxyamide], for which the IC50 on MMP 1 was determined as 2.18 µM; at TACE it was 0.506 µM.
In the case of `CN1CCC(C(=O)NO)(S(=O)(=O)c2ccc(Oc3ccc(Cl)cc3)cc2)CC1` [Example 249, 4-[4-(4-chloro-phenoxy)-benzenesulfonyl]1-methyl-piperidine-4-carboxylic acid hydroxyamide], the IC50 came out at 0.002 µM at MMP 9, 0.0016 µM at MMP 13 and 0.27 µM at TACE.
Turning to `CC(C)CCOc1ccc(S(=O)(=O)C2(C(=O)NO)CCN(Cc3ccccc3)CC2)cc1` [Example 255, 1-Benzyl-4-[4-(3-methyl-butoxy)-benzenesulfonyl]-piperidine-4-carboxylic acid hydroxyamide], the IC50 is 0.0015 µM at MMP 13 and 0.565 µM on TACE.
With `CCCCOc1ccc(S(=O)(=O)C2(C(=O)NO)CCN(Cc3cccc(OC)c3)CC2)cc1` [Example 260, 4-(4-butoxy-benzenesulfonyl)-1-(3-methoxy-benzyl)-piperidine-4-carboxylic acid hydroxyamide], the IC50 at MMP 1 was found to be 1.49 µM; on MMP 9, 0.0029 µM; at TACE, 0.272 µM.
In the case of `COc1ccc(S(=O)(=O)C2(C(=O)NO)CCN(Cc3ccc(-c4cccs4)cc3)CC2)cc1` [Example 261, 4-(4-Methoxy-benzenesulfonyl)-1-(thiophen-2-yl-benzyl)-piperidine-4-carboxylic acid hydroxyamide], the figures for the IC50 at MMP 1 and at MMP 9 were 0.513 µM and 0.0109 µM, respectively.
Regarding `COc1ccc(S(=O)(=O)C2(C(=O)NO)CCN(Cc3ccc(-c4ccccn4)cc3)CC2)cc1` [Example 262, 4-(4-methoxy-benzenesulfonyl)-1-(4-pyridin-2-yl-benzyl)-piperidine-4-carboxylic acid hydroxyamide], the IC50 at MMP 1 worked out at 0.422 µM; at MMP 9, 0.0061 µM; at TACE, 0.298 µM.
For the compound “(1-Hydroxycarbamoyl-propane-1 -sulfanyl)-propionic acid hydroxyamide [Example 122]”, the “TACE % inhibition at 1 µM” value at TACE is 3.1%.

Source of the values: patent US6441023B1 (American Home Products Corporation, priority 1997, dated 2002).
